# Test results taken from US20220324912A1, “THERAPEUTIC PEPTIDES” (COHBAR, INC., priority 2019, published 2022).
# Residues, ends and D or L forms follow the SMILES beside them.
# Columns and labels:
# [1] = test system: Caspase 3/7 in MDA-MB-231 cells; test: Caspase 3/7 Activity in MDA-MB-231 Cells (Caspase-Glo 3/7); type: cell-based, human; settings: for Caspase 3/7 activity, Percent of Control Activity: peptides 10 μM, 18 hours, relative to DMSO control
# Description: The effect of the peptides on cell death/survival can be assessed using a caspase-3 assay. Peptides were dissolved with DMSO at 10 mM stock. […] Staurosporine (Selleckchem) was dissolved with DMSO at 1 mM stock. Caspase-Glo 3/7 Assay Reagent was purchased from Promega (Madison, Wis.). MDA-MB-231 human breast cancer cell line was purchased from American Type Culture Collection (Manassas, Va.). MDA-MB-231 cells were grown in DMEM Medium supplemented with 10% FBS. 100 μg/ml penicillin and 100 μg/ml streptomycin were added to the culture medium. Cultures were maintained at 37° C. in a humidified atmosphere of 5% CO2 and 95% air. MDA-MB-231 cells were incubated with test peptides in duplicate at 10 μM at 37° C. in a humidified atmosphere of 5% CO2 and 95% air for 18 hours. 25 μl of Caspase-Glo 3/7 Assay Reagent was added to each well and incubated at 37° C., 5% CO2 for 1 hour. Luminescence for each sample well on the plate was measured by Envision 2104 Multilabel Reader (PerkinElmer, Santa Clara, Calif.). Activity was calculated relative to DMSO control.
# MCF-7 cells = settings: human, 72 hours, 10 μM
# Description: Peptides and reference compound staurosporine (Selleckchem) were dissolved with DMSO at 10 mM stock. CellTiter 96® AQueous One Solution Reagent (MTS assay reagent) was purchased from Promega (Madison, Wis.). MCF-7 human breast cancer cell line was purchased from American Type Culture Collection (Manassas, Va.). MCF-7 cells were grown in EMEM Medium supplemented with 10% FBS and 0.01 mg/ml human recombinant insulin. 100 μg/ml penicillin and 100 μg/ml streptomycin were added to the culture medium. Cells were incubated with test peptides at 10 μM at 37° C. in a humidified atmosphere of 5% CO2 and 95% air for 72 hours. 5 μl of CellTiter 96® AQueous One Solution Reagent (MTS assay reagent) was added to each well and incubated at 37° C., 5% CO2 for 5 hours. Absorbance at 492 nm was recorded by Envision 2104 Multilabel Reader. Treatment with DMSO alone was used as the cell viability activity control.
# 3T3-L1 adipocytes = test: Free Fatty Acid Levels in 3T3-L1 Adipocytes (Example 4, 25 μM); type: cell-based, mouse; settings: peptides 25 μM, 20-22 hours then 3 hours with isoproterenol 1 nM, 3T3-L1 adipocytes
# Description: Following 12-15 days' differentiation, test peptides were added to a final concentration of 25 μM and incubated for 20-22 hours in Adipocyte Maintenance Medium. After 20-22 hours, isoproterenol (1 nM) was added to all wells except untreated controls and test peptides were replenished. Cells were incubated for a further 3 hours in Assay Buffer (Zen-Bio). Free fatty acid concentrations in the media were determined using a Free Fatty Acid Assay Kit (Zen-Bio) according to the manufacturer's instructions using a plate reader (540 nm). Absorbance values were corrected for untreated background and expressed relative to isoproterenol treated cells. Treatment with isoproterenol (1 nM) alone was used as the free fatty acid level stimulatory control. The relative standard deviation of the isoproterenol control was <10%. […] Free fatty acid levels for insulin (100 nM) treatment were <5% of the isoproterenol control value.
# MDA-MB-231 cells = test: Cell viability, MTS Assay in MDA-MB-231 Cells; type: cell-based; settings: human, 72 hours
# Description: Test compounds and reference compound staurosporine (Selleckchem) were all dissolved with DMSO at 10 mM stock. […] Activity was calculated relative to DMSO control. […] Cell viability was 3% of the DMSO control value for Staurosporine (10 uM).
# [2] = Stability in Mouse Plasma; type: in vitro ADME; settings: pooled mouse plasma, 37° C., peptides 100 DM
# Description: Peptides (100 DM) were incubated in pooled mouse plasma at 37° C. and samples were removed and immediately analyzed for the concentration of intact peptide by LC/MS/MS over the course of 3 hours. The percent of peptide remaining in plasma at each time point was calculated relative to the initial peak area (Table 9).
% Remaining at 0 min ([2]; 0 min),"remaining at 0.25 h, 100 DM ([2]; 15 min)","remaining at 0.5 h, 100 DM ([2]; 30 min)","remaining at 1 h, 100 DM ([2]; 60 min)","remaining at 2 h, 100 DM ([2]; 120 min)","remaining at 3 h, 100 DM ([2]; 180 min)",Structure (SMILES),"Caspase 3/7 activity, Percent of Control Activity [1]","MTS cell viability, Percent of Control Activity (MCF-7 cells)","Free fatty acid levels, Percent of Control Value (percent isoproterenol control) (3T3-L1 adipocytes)","MTS cell viability, Percent of Control Activity (MDA-MB-231 cells)","Caspase activity, % of background-corrected DMSO control value ([1]; staurosporine 0.05 nM)"
,,,,,,CC[C@H](C)[C@H](NC(=O)[C@H](C)NC(=O)[C@H](CCCNC(=N)N)NC(=O)[C@H](C)NC(=O)[C@@H](NC(=O)[C@H](CCCNC(=N)N)NC(=O)[C@H](CCCNC(=N)N)NC(=O)[C@@H](NC(=O)[C@H](C)NC(=O)[C@H](CC(C)C)NC(=O)[C@@H](N)CCSC)C(C)C)[C@@H](C)O)C(=O)NCC(=O)O [compound 2] (H-MLAVRRTARAIG-OH; N-terminus and C-terminus assumed),71%,39%,76%,78%,
100%,70.9%,68.2%,52.6%,31.6%,18.1%,CC[C@H](C)[C@H](NC(=O)[C@H](C)NC(=O)[C@H](CO)NC(=O)CNC(=O)[C@@H]1CCCN1C(=O)[C@H](CC(C)C)NC(=O)[C@H](CCCNC(=N)N)NC(=O)[C@@H](N)CCSC)C(=O)N[C@@H](CC(C)C)C(=O)N[C@H](C(=O)N[C@@H](CC(N)=O)C(=O)N1CCC[C@H]1C(=O)N[C@H](C(=O)N[C@@H](CC(C)C)C(=O)NCC(=O)N[C@@H](Cc1c[nH]c2ccccc12)C(=O)N[C@H](C(=O)N[C@@H](Cc1c[nH]c2ccccc12)C(=O)N[C@H](C(=O)O)C(C)C)C(C)C)C(C)C)[C@@H](C)O [compound 7] (H-MRLPGSAILTNPVLGWVWV-OH),,64%,,88%,
,,,,,,CSCC[C@H](N)C(=O)N[C@H](C(=O)N[C@@H](Cc1ccccc1)C(=O)N[C@@H](CCC(N)=O)C(=O)N[C@@H](CCCCN)C(=O)N[C@H](C(=O)N[C@@H](Cc1c[nH]cn1)C(=O)N[C@@H](CC(N)=O)C(=O)N[C@@H](CC(C)C)C(=O)N[C@@H](CC(N)=O)C(=O)N[C@@H](CCC(N)=O)C(=O)N[C@@H](Cc1c[nH]cn1)C(=O)N[C@@H](CC(N)=O)C(=O)N[C@@H](Cc1c[nH]cn1)C(=O)N1CCC[C@H]1C(=O)N[C@@H](CCC(N)=O)C(=O)N1CCC[C@H]1C(=O)N[C@@H](CC(N)=O)C(=O)N[C@@H](Cc1ccc(O)cc1)C(=O)O)[C@@H](C)O)[C@@H](C)O [compound 20] (H-MTFQKTHNLNQHNHPQPNY-OH; N-terminus and C-terminus assumed),58%,63%,71%,85%,
,,,,,,CC[C@H](C)[C@H](NC(=O)CNC(=O)[C@H](CCC(=O)O)NC(=O)[C@H](CCCNC(=N)N)NC(=O)CNC(=O)[C@H](Cc1c[nH]c2ccccc12)NC(=O)[C@@H]1CCCN1C(=O)[C@H](Cc1c[nH]cn1)NC(=O)CNC(=O)CNC(=O)[C@H](CCC(=O)O)NC(=O)[C@H](CO)NC(=O)[C@H](CC(C)C)NC(=O)[C@@H]1CCCN1C(=O)CNC(=O)[C@H](CCCCN)NC(=O)[C@@H](NC(=O)[C@@H](NC(=O)[C@@H](N)CCSC)C(C)C)C(C)C)C(=O)O [compound 25] (H-MVVKGPLSEGGHPWGREGI-OH; N-terminus and C-terminus assumed),46%,40%,61%,76%,
,,,,,,CC[C@H](C)[C@H](NC(=O)[C@H](C)NC(=O)[C@H](Cc1c[nH]c2ccccc12)NC(=O)[C@@H](N)CCSC)C(=O)N[C@@H](CC(=O)O)C(=O)N[C@@H](CCC(=O)O)C(=O)N[C@@H](CCCCN)C(=O)N[C@@H](C)C(=O)N[C@H](C(=O)N[C@@H](CCC(=O)O)C(=O)N[C@@H](C)C(=O)N[C@@H](CO)C(=O)NCC(=O)N[C@@H](CCC(=O)O)C(=O)O)C(C)C [compound 30] (H-MWAIDEKAVEASGE-OH; N-terminus and C-terminus assumed),50%,61%,85%,76%,
,,,,,,"CN[C@@H]1C[C@H]2O[C@@](C)([C@@H]1OC)n1c3ccccc3c3c4c(c5c6ccccc6n2c5c31)C(=O)NC4 [staurosporine, reference compound]",,,,,130%
